From PubChem BioAssay (NCI)
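Where inhibition never reached the appropriate level, the endpoint shown equals the highest concentration tested. Otherwise, values were interpolated linearly from a five-concentration, 48-hour dose response in 96-well plates. Abbreviation: GI50, concentration required for 50% inhibition of growth. TGI marks complete inhibition of growth.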

Legend:
Test in all cases: NCI-60 cell line screen, 48 h
NCI/ADR-RES ovarian = tested on: NCI/ADR-RES ovarian
MDA-MB-435 = tested on: MDA-MB-435
NCI-H460 lung = tested on: NCI-H460 lung
CCRF-CEM leukemia = tested on: CCRF-CEM leukemia
SK-MEL-2 melanoma = tested on: SK-MEL-2 melanoma
HCT-15 colon = tested on: HCT-15 colon
HOP-62 NSCLC = tested on: HOP-62 NSCLC
OVCAR-3 ovarian = tested on: OVCAR-3 ovarian
U251 CNS = tested on: U251 CNS
LOX IMVI melanoma = tested on: LOX IMVI melanoma
IGROV1 ovarian = tested on: IGROV1 ovarian
SF-539 CNS = tested on: SF-539 CNS
TK-10 renal = tested on: TK-10 renal
HS 578T breast = tested on: HS 578T breast
EKVX NSCLC = tested on: EKVX NSCLC
OVCAR-8 ovarian = tested on: OVCAR-8 ovarian
NCI-H226 lung = tested on: NCI-H226 lung
NCI-H23 lung = tested on: NCI-H23 lung
UO-31 renal = tested on: UO-31 renal
SK-MEL-28 melanoma = tested on: SK-MEL-28 melanoma
SNB-75 CNS = tested on: SNB-75 CNS
SR leukemia = tested on: SR leukemia
PC-3 prostate = tested on: PC-3 prostate
M14 melanoma = tested on: M14 melanoma
A498 renal = tested on: A498 renal
HT29 colon = tested on: HT29 colon
COLO 205 colon = tested on: COLO 205 colon
T-47D breast = tested on: T-47D breast
SF-268 CNS = tested on: SF-268 CNS
UACC-257 melanoma = tested on: UACC-257 melanoma
OVCAR-5 ovarian = tested on: OVCAR-5 ovarian
KM12 colon = tested on: KM12 colon
SK-MEL-5 melanoma = tested on: SK-MEL-5 melanoma
OVCAR-4 ovarian = tested on: OVCAR-4 ovarian
SNB-19 CNS = tested on: SNB-19 CNS
786-0 renal = tested on: 786-0 renal
UACC-62 melanoma = tested on: UACC-62 melanoma
CAKI-1 renal = tested on: CAKI-1 renal
SK-OV-3 ovarian = tested on: SK-OV-3 ovarian
RPMI-8226 leukemia = tested on: RPMI-8226 leukemia
HL-60(TB) leukemia = tested on: HL-60(TB) leukemia
K-562 leukemia = tested on: K-562 leukemia
SN12C renal = tested on: SN12C renal
SF-295 CNS = tested on: SF-295 CNS
MDA-MB-231 breast = tested on: MDA-MB-231 breast
SW-620 colon = tested on: SW-620 colon
NCI-H522 lung = tested on: NCI-H522 lung
MCF7 breast = tested on: MCF7 breast
DU-145 prostate = tested on: DU-145 prostate
HCC-2998 colon = tested on: HCC-2998 colon
HOP-92 NSCLC = tested on: HOP-92 NSCLC
BT-549 breast = tested on: BT-549 breast
RXF 393 renal = tested on: RXF 393 renal
A549 NSCLC = tested on: A549 NSCLC
MALME-3M melanoma = tested on: MALME-3M melanoma
HCT-116 colon = tested on: HCT-116 colon
MOLT-4 leukemia = tested on: MOLT-4 leukemia
ACHN renal = tested on: ACHN renal

CNC(=O)c1cc(Oc2ccc3nc(N[C@@H]4CCCC[C@H]4O)sc3c2)ccn1
GI50 (NCI/ADR-RES ovarian): 49.2 µM
TGI (NCI/ADR-RES ovarian): > 100 µM
GI50 (MDA-MB-435): 32.6 µM
TGI (MDA-MB-435): > 100 µM
GI50 (NCI-H460 lung): 53.4 µM
TGI (NCI-H460 lung): > 100 µM
GI50 (CCRF-CEM leukemia): 43.1 µM
TGI (CCRF-CEM leukemia): > 100 µM
GI50 (SK-MEL-2 melanoma): > 87.8 µM
TGI (SK-MEL-2 melanoma): > 100 µM
GI50 (HCT-15 colon): 38.1 µM
TGI (HCT-15 colon): > 100 µM
GI50 (HOP-62 NSCLC): > 67.3 µM
TGI (HOP-62 NSCLC): > 100 µM
GI50 (OVCAR-3 ovarian): 45.2 µM
TGI (OVCAR-3 ovarian): > 100 µM
GI50 (U251 CNS): 50.1 µM
TGI (U251 CNS): > 100 µM
GI50 (LOX IMVI melanoma): 58.4 µM
TGI (LOX IMVI melanoma): > 100 µM
GI50 (IGROV1 ovarian): > 77.2 µM
TGI (IGROV1 ovarian): > 100 µM
GI50 (SF-539 CNS): 36.3 µM
TGI (SF-539 CNS): > 100 µM
GI50 (TK-10 renal): > 100 µM
TGI (TK-10 renal): > 100 µM
GI50 (HS 578T breast): > 69.9 µM
TGI (HS 578T breast): > 100 µM
GI50 (EKVX NSCLC): 38.2 µM
TGI (EKVX NSCLC): > 100 µM
GI50 (OVCAR-8 ovarian): 69.4 µM
TGI (OVCAR-8 ovarian): > 100 µM
GI50 (NCI-H226 lung): 61.9 µM
TGI (NCI-H226 lung): > 100 µM
GI50 (NCI-H23 lung): 59.3 µM
TGI (NCI-H23 lung): > 100 µM
GI50 (UO-31 renal): 33.5 µM
TGI (UO-31 renal): > 100 µM
GI50 (SK-MEL-28 melanoma): 63.3 µM
TGI (SK-MEL-28 melanoma): > 100 µM
GI50 (SNB-75 CNS): 31.3 µM
TGI (SNB-75 CNS): > 100 µM
GI50 (SR leukemia): 40 µM
TGI (SR leukemia): > 100 µM
GI50 (PC-3 prostate): 33.7 µM
TGI (PC-3 prostate): > 100 µM
GI50 (M14 melanoma): 36.7 µM
TGI (M14 melanoma): > 100 µM
GI50 (A498 renal): > 40.5 µM
TGI (A498 renal): > 100 µM
GI50 (HT29 colon): 97.8 µM
TGI (HT29 colon): > 100 µM
GI50 (COLO 205 colon): 59.8 µM
TGI (COLO 205 colon): > 100 µM
GI50 (T-47D breast): 21.1 µM
TGI (T-47D breast): > 100 µM
GI50 (SF-268 CNS): 68 µM
TGI (SF-268 CNS): > 100 µM
GI50 (UACC-257 melanoma): 37.2 µM
TGI (UACC-257 melanoma): > 100 µM
GI50 (OVCAR-5 ovarian): > 100 µM
TGI (OVCAR-5 ovarian): > 100 µM
GI50 (KM12 colon): 66.3 µM
TGI (KM12 colon): > 100 µM
GI50 (SK-MEL-5 melanoma): 18.1 µM
TGI (SK-MEL-5 melanoma): 38.1 µM
GI50 (OVCAR-4 ovarian): 31.2 µM
TGI (OVCAR-4 ovarian): > 100 µM
GI50 (SNB-19 CNS): > 100 µM
TGI (SNB-19 CNS): > 100 µM
GI50 (786-0 renal): > 90.9 µM
TGI (786-0 renal): > 100 µM
GI50 (UACC-62 melanoma): 49.9 µM
TGI (UACC-62 melanoma): > 100 µM
GI50 (CAKI-1 renal): 44.9 µM
TGI (CAKI-1 renal): > 100 µM
GI50 (SK-OV-3 ovarian): > 100 µM
TGI (SK-OV-3 ovarian): > 100 µM
GI50 (RPMI-8226 leukemia): > 54.1 µM
TGI (RPMI-8226 leukemia): > 100 µM
GI50 (HL-60(TB) leukemia): 62.5 µM
TGI (HL-60(TB) leukemia): > 100 µM
GI50 (K-562 leukemia): 43.7 µM
TGI (K-562 leukemia): > 100 µM
GI50 (SN12C renal): > 100 µM
TGI (SN12C renal): > 100 µM
GI50 (SF-295 CNS): 31.6 µM
TGI (SF-295 CNS): > 100 µM
GI50 (MDA-MB-231 breast): 82.2 µM
TGI (MDA-MB-231 breast): > 100 µM
GI50 (SW-620 colon): > 100 µM
TGI (SW-620 colon): > 100 µM
GI50 (NCI-H522 lung): > 76.7 µM
TGI (NCI-H522 lung): > 100 µM
GI50 (MCF7 breast): 36.6 µM
TGI (MCF7 breast): > 100 µM
GI50 (DU-145 prostate): 71.8 µM
TGI (DU-145 prostate): > 100 µM
GI50 (HCC-2998 colon): > 100 µM
TGI (HCC-2998 colon): > 100 µM
GI50 (HOP-92 NSCLC): 31.9 µM
TGI (HOP-92 NSCLC): > 100 µM
GI50 (BT-549 breast): 31.8 µM
TGI (BT-549 breast): > 100 µM
GI50 (RXF 393 renal): > 100 µM
TGI (RXF 393 renal): > 100 µM
GI50 (A549 NSCLC): 62.5 µM
TGI (A549 NSCLC): > 100 µM
GI50 (MALME-3M melanoma): 28.6 µM
TGI (MALME-3M melanoma): 99.2 µM
GI50 (HCT-116 colon): 49.1 µM
TGI (HCT-116 colon): > 100 µM
GI50 (MOLT-4 leukemia): 32.8 µM
TGI (MOLT-4 leukemia): > 100 µM
GI50 (ACHN renal): 55.8 µM
TGI (ACHN renal): > 100 µM
